This is an account of results in paper PMC8399019, “Inhibition of Cysteine Proteases by 6,6′-Dihydroxythiobinupharidine (DTBN) from Nuphar lutea” (Molecules, 2021).

Format in all cases: biochemical
The target of one assay is T1, Human Cathepsin S (Homo sapiens, UniProt P25774).
T1 construct: purchased ABCAM (so in the source) 1183-cy
The assay can be described thus: Enzyme inhibition assay, Human Cathepsin S (fluorometric). Particulars: triplicates, value (SD). The method, then: (§1) Enzyme inhibition assays were performed in triplicates using transparent 96-well plates for Calpain, Trypsin, Papain, Cathepsin L and Cathepsin B (167008; Nunc, Roskilde, Denmark), or black ones for Cathepsin S, (Greiner 96 Polystyrol GRE96fb), according to manufacturers’ instructions. Briefly, a reaction mixture of 100 µL contained: 45µL of enzyme in assay buffer, 5 µL of inhibitor diluted in DMSO. 50 µL substrate prepared in assay buffer according to manufacturers’ instructions. The inhibitor was serially diluted in DMSO to concentrations from 0.0075 µg/µL to 0.0000075 µg/µL. A total of […] DMSO was added to the control sample. The enzyme substrate mix was added last, just before starting the fluorometric measurement. Data were collected for 1.5 h at 60 sec intervals.
(§2) Papain Latex (cat. No. p3125), Human Cathepsin B (cat.no. C0150), Trypsin and Calpain (cat. No. ab910119) and the substrate, casein-FITC, were obtained from Sigma-Aldrich. The assay was carried out in 0.3 M potassium chloride, 0.1 mM EDTA, and 3 mM DTT pH 6.5. Ex/Em = 485–535 nm. Human Cathepsins S (cat. No. 1183-cy) and L (cat.no. ab174030) and their substrates were Mca-RPKPVE-Nval-WRK (Dnp)-NH2 (ES002) and Ac-FR-AFC, respectively. They were obtained from ABCAM. Assay buffer for Human Cathepsin S was 50 mM NaOAc, 250 mM NaCl, 5 mM DTT pH 4.5. […]

The target in the next assay is T2, Human Cathepsin L (Homo sapiens, UniProt P07711).
T2 construct: purchased ABCAM ab174030
The assay can be described thus: Enzyme inhibition assay, Human Cathepsin L (fluorometric). The settings on record: triplicates, value (SD). Here is the method: as §1, §2

Another assay has as its target T3, Human Cathepsin B (Homo sapiens, UniProt P07858).
T3 construct: purchased Sigma-Aldrich C0150
The assay can be described thus: Enzyme inhibition assay, Human Cathepsin B (casein-FITC). Particulars: triplicates, value (SD). Here is the method:
as §1, §2

For a further assay, the target named is T4, Papain Latex (Carica papaya, UniProt P00784).
T4 construct: purchased Sigma-Aldrich p3125
The assay can be described thus: Enzyme inhibition assay, Papain Latex (casein-FITC). The method, then: as §1, §2

T1 sequence (P25774 115-331): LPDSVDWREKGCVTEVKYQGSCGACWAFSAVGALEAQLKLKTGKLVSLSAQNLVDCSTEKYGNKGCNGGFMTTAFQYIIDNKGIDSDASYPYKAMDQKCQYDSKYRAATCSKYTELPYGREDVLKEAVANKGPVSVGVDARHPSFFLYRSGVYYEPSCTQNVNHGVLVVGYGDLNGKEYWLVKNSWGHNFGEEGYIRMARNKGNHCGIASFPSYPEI
T2 sequence (P07711 114-333): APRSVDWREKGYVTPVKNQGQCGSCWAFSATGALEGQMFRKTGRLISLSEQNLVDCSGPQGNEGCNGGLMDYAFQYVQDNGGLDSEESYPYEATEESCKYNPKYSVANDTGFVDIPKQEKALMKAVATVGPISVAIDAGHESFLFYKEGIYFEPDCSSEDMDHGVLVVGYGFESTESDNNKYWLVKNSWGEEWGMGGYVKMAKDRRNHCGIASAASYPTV
T4 sequence (P00784 134-345): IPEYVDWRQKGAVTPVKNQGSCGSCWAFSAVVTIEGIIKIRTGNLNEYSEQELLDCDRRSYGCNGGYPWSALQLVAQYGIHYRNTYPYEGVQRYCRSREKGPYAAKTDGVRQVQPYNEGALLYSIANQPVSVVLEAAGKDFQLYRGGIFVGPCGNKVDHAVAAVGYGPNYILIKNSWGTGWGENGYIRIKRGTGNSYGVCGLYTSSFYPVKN

The IC50 is the concentration that gives 50% inhibition. Read a low IC50 as inhibition by little substance. For `CC1CCC(c2ccoc2)N2C1CCC1(CSC3(CCC4C(C)CCC(c5ccoc5)N4C3O)C1)C2O` (stereo not shown) [DTBN, 6,6′-dihydroxythiobinupharidine], the IC50 against Human Cathepsin S is 3.2 µM; on Human Cathepsin L, 13.2 µM; against Human Cathepsin B it was 1360 µM; on Papain Latex, 70.4 µM.
